Several values for one entry are separate records, joined by “and”; a condition that tells them apart may be missing. Identical values can stand only once. Inconclusive results are not listed.
Test system: MX-1 breast xenograft, nude mice, tumor weight T/C
Experiment: NCI In Vivo Anticancer Drug Screen. Data for tumor model Human Mammary Carcinoma MX-1 Xenograft (intrarenal inoculation) in NU/NU Swiss (nude) mice
Settings: endpoint: mean tumor weight change, higher = larger tumour
Summary of the method: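 Compound dosed to mice with transplantable tumor; vehicle group as control. Endpoint survival or tumour size, reported as T/C.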

[1] = dose: 150.0 mg/kg/injection, schedule: Q04DX003 (sc), vehicle: saline with Tween-80
[2] = dose: 300.0 mg/kg/injection, schedule: Q04DX003 (sc), vehicle: saline with Tween-80
[3] = dose: 600.0 mg/kg/injection, schedule: Q04DX003 (sc), vehicle: saline with Tween-80
[4] = dose: 1200.0 mg/kg/injection, schedule: Q04DX003 (sc), vehicle: saline with Tween-80
[5] = dose: 150.0 mg/kg/injection, schedule: Q04DX003 (ip), vehicle: saline
[6] = dose: 300.0 mg/kg/injection, schedule: Q04DX003 (ip), vehicle: saline
[7] = dose: 2400.0 mg/kg/injection, schedule: Q04DX003 (sc), vehicle: saline with Tween-80
[8] = dose: 100.0 mg/kg/injection, schedule: Q01DX010 (sc), vehicle: saline with Tween-80
[9] = dose: 200.0 mg/kg/injection, schedule: Q01DX010 (sc), vehicle: saline with Tween-80
[10] = dose: 1200.0 mg/kg/injection, schedule: Q04DX003 (sc), vehicle: Klucel (hydroxypropylcellulose) (HPC)
[11] = dose: 2400.0 mg/kg/injection, schedule: Q04DX003 (sc), vehicle: Klucel (hydroxypropylcellulose) (HPC)

OCCN1CCN(CCCN2c3ccccc3Sc3ccc(C(F)(F)F)cc32)CC1
T/C (dose: 30.0 mg/kg/injection, schedule: Q04DX003 (sc), vehicle: saline): 87 % of control
T/C (dose: 60.0 mg/kg/injection, schedule: Q04DX003 (sc), vehicle: saline): 50 % of control and 71 % of control
T/C (dose: 480.0 mg/kg/injection, schedule: Q04DX003 (sc), vehicle: saline): 36 % of control

CCCCOCN(COCCCC)C(C)Cc1ccccc1 (centres undefined)
T/C (dose: 200.0 mg/kg/injection, schedule: Q04DX003 (sc), vehicle: saline with Tween-80): 70 % of control
T/C (dose: 400.0 mg/kg/injection, schedule: Q04DX003 (sc), vehicle: saline with Tween-80): 52 % of control
T/C (dose: 800.0 mg/kg/injection, schedule: Q04DX003 (sc), vehicle: saline with Tween-80): 66 % of control

COc1cccc2c1C(=N)c1c(O)c3c(c(O)c1C2=O)C[C@@](O)(C(C)=O)C[C@@H]3OC1CC(N)C(O)C(C)O1 (some centres undefined)
T/C (dose: 4.0 mg/kg/injection, schedule: Q01DX010 (sc), vehicle: water): 62 % of control
T/C (dose: 16.0 mg/kg/injection, schedule: Q01DX010 (sc), vehicle: water): 13 % of control and 21 % of control

COc1cc(C(=O)N/N=C/c2cccc([N+](=O)[O-])c2)cc(OC)c1OC
T/C [1]: 178 % of control
T/C [2]: 114 % of control
T/C [3]: 67 % of control
T/C [4]: 108 % of control

C=CS(=O)(=O)c1ccccc1
T/C (dose: 50.0 mg/kg/injection, schedule: Q01DX010 (sc), vehicle: saline): 91 % of control
T/C (dose: 100.0 mg/kg/injection, schedule: Q01DX010 (sc), vehicle: saline): 81 % of control

Cc1cc(NS(=O)(=O)c2ccc(N=Nc3cc(N=Nc4ccc(S(=O)(=O)Nc5cc(C)nc(C)n5)cc4)c4c(NC(=O)C(Cl)Cl)cccc4c3OC(=O)C(Cl)Cl)cc2)nc(C)n1 (tested in a mixture with another compound)
T/C (dose: 2400.0 mg/kg/injection, schedule: Q04DX003 (sc), vehicle: suspension in saline): 112 % of control

c1cn[nH]c1
T/C (dose: 75.0 mg/kg/injection, schedule: Q04DX003 (ip), vehicle: saline): 106 % of control
T/C [5]: 96 % of control
T/C [6]: 69 % of control
T/C (dose: 600.0 mg/kg/injection, schedule: Q04DX003 (ip), vehicle: saline): 71 % of control

CC(C)CCCCCCCCCCCCC(=O)NCC(=O)NC1C(O)C(O)C(Nc2ncnc3nc[nH]c23)OC1C(O)CO (centres undefined)
T/C (dose: 0.31 mg/kg/injection, schedule: Q01DX010 (sc), vehicle: saline): 158 % of control
T/C (dose: 0.4 mg/kg/injection, schedule: Q01DX010 (sc), vehicle: saline): 194 % of control
T/C (dose: 0.63 mg/kg/injection, schedule: Q01DX010 (sc), vehicle: saline): 105 % of control
T/C (dose: 0.8 mg/kg/injection, schedule: Q01DX010 (sc), vehicle: saline): 93 % of control
T/C (dose: 1.25 mg/kg/injection, schedule: Q01DX010 (sc), vehicle: saline): 80 % of control
T/C (dose: 1.6 mg/kg/injection, schedule: Q01DX010 (sc), vehicle: saline): 40 % of control

CN=C(N)N/N=C(\c1ccccc1)c1ccc(Br)cc1
T/C (dose: 25.0 mg/kg/injection, schedule: Q04DX003 (sc), vehicle: saline with Tween-80): 101 % of control
T/C (dose: 50.0 mg/kg/injection, schedule: Q04DX003 (sc), vehicle: saline with Tween-80): 163 % of control
T/C (dose: 100.0 mg/kg/injection, schedule: Q04DX003 (sc), vehicle: saline with Tween-80): 78 % of control

C[C@H]1C[C@@H]2[C@H]([C@@H](O)C[C@@]3(C)[C@H]2CC[C@]3(O)C(=O)CO)[C@@]2(C)C=CC(=O)C=C12
T/C (dose: 200.0 mg/kg/injection, schedule: Q04DX003 (sc), vehicle: Klucel (hydroxypropylcellulose) (HPC)): 33 % of control
T/C (dose: 400.0 mg/kg/injection, schedule: Q04DX003 (sc), vehicle: Klucel (hydroxypropylcellulose) (HPC)): 31 % of control
T/C (dose: 800.0 mg/kg/injection, schedule: Q04DX003 (sc), vehicle: Klucel (hydroxypropylcellulose) (HPC)): 30 % of control
T/C (dose: 1600.0 mg/kg/injection, schedule: Q04DX003 (sc), vehicle: Klucel (hydroxypropylcellulose) (HPC)): 13 % of control

O=c1cc(-c2ccccc2)[nH]c2c1CCCC2
T/C [2]: 54 % of control
T/C [3]: 53 % of control
T/C [4]: 65 % of control
T/C [7]: 96 % of control

O=NN(CCCl)C(=O)NCCO
T/C (dose: 3.12 mg/kg/injection, schedule: Q04DX003 (sc), vehicle: water): 72 % of control and 208 % of control
T/C (dose: 12.5 mg/kg/injection, schedule: Q04DX003 (sc), vehicle: water): 10 % of control

O=C1N(Cl)C(=O)C(c2ccc(Cl)cc2)(c2ccc(Cl)cc2)N1Cl
T/C (dose: 50.0 mg/kg/injection, schedule: Q01DX010 (sc), vehicle: saline with Tween-80): 68 % of control
T/C [8]: 111 % of control
T/C [9]: 65 % of control
T/C (dose: 400.0 mg/kg/injection, schedule: Q01DX010 (sc), vehicle: saline with Tween-80): 87 % of control

O=C(c1cccnc1)c1cc(-c2ccccn2)c(=O)n2ccccc12
T/C [2]: 66 % of control
T/C [3]: 103 % of control
T/C [4]: 81 % of control
T/C [7]: 120 % of control

COc1cccc2c1C(=O)c1c(O)c3c(c(O)c1C2=O)C[C@@](O)(/C(CO)=N/NC(=O)c1ccc(Cl)c(Cl)c1)C[C@@H]3OC1CC(N)C(O)C(C)O1 (some centres undefined)
T/C (dose: 8.0 mg/kg/injection, schedule: Q01DX010 (sc), vehicle: water): 42 % of control

N#Cc1nc(C#N)c(Sc2ccccc2)c(Sc2ccccc2)c1Sc1ccccc1
T/C (dose: 25.0 mg/kg/injection, schedule: Q01DX010 (sc), vehicle: saline with Tween-80): 57 % of control
T/C [8]: 24 % of control
T/C [9]: 80 % of control

[I][Hg][CH2]C1OCCOC1[CH2][Hg][I] (centres undefined)
T/C [10]: 77 % of control
T/C [11]: 98 % of control

CC(Oc1ccccc1-c1ccccc1)C(=O)N(C)C (centres undefined)
T/C [2]: 82 % of control
T/C [3]: 102 % of control
T/C [4]: 114 % of control
T/C [7]: 60 % of control

CCc1c(CC(=O)O)c2cc(C)ccc2n1Cc1ccc(Cl)cc1
T/C (dose: 300.0 mg/kg/injection, schedule: Q04DX003 (sc), vehicle: Klucel (hydroxypropylcellulose) (HPC)): 71 % of control
T/C (dose: 600.0 mg/kg/injection, schedule: Q04DX003 (sc), vehicle: Klucel (hydroxypropylcellulose) (HPC)): 86 % of control
T/C [10]: 51 % of control
T/C [11]: 49 % of control

Cc1cc(Br)c2nsnc2c1[N+](=O)[O-]
T/C (dose: 150.0 mg/kg/injection, schedule: Q04DX003 (ip), vehicle: saline with Tween-80): 104 % of control
T/C (dose: 300.0 mg/kg/injection, schedule: Q04DX003 (ip), vehicle: saline with Tween-80): 74 % of control
T/C (dose: 600.0 mg/kg/injection, schedule: Q04DX003 (ip), vehicle: saline with Tween-80): 97 % of control
T/C (dose: 1200.0 mg/kg/injection, schedule: Q04DX003 (ip), vehicle: saline with Tween-80): 159 % of control

CS(=O)(=O)Nc1ccc(C(=O)CCN2CCCCCC2)cc1
T/C [1]: 101 % of control
T/C [2]: 70 % of control

O=C(O)C1CC(c2ccccc2)=NN1c1ccccc1 (centres undefined)
T/C (dose: 200.0 mg/kg/injection, schedule: Q04DX003 (sc), vehicle: water): 72 % of control
T/C (dose: 400.0 mg/kg/injection, schedule: Q04DX003 (sc), vehicle: water): 72 % of control

CN(C)P(=O)(Oc1ccccc1)N(C)C
T/C [1]: 97 % of control
T/C [2]: 107 % of control
T/C [3]: 113 % of control
T/C [4]: 71 % of control

COc1cc(NCc2ccc3nc(N)nc(N)c3c2C)cc(OC)c1OC (tested in a mixture with another compound)
T/C (dose: 10.0 mg/kg/injection, schedule: Q04DX003 (ip), vehicle: water): 92 % of control
T/C (dose: 20.0 mg/kg/injection, schedule: Q04DX003 (ip), vehicle: water): 100 % of control
T/C (dose: 40.0 mg/kg/injection, schedule: Q04DX003 (ip), vehicle: water): 101 % of control
T/C (dose: 80.0 mg/kg/injection, schedule: Q04DX003 (ip), vehicle: water): 115 % of control
T/C (dose: 160.0 mg/kg/injection, schedule: Q04DX003 (ip), vehicle: water): 70 % of control

CC(C)NC(=O)OCc1c(COC(=O)NC(C)C)c(-c2ccc(Cl)c(Cl)c2)n2c1CCC2
T/C (dose: 25.0 mg/kg/injection, schedule: Q01DX010 (sc), vehicle: distilled water + Tween-80): -21 % of control
T/C (dose: 50.0 mg/kg/injection, schedule: Q01DX010 (sc), vehicle: distilled water + Tween-80): 16 % of control
T/C [5]: 21 % of control
T/C [6]: 28 % of control

CN(C)N=Nc1ccc(S(N)(=O)=O)cc1
T/C (dose: 100.0 mg/kg/injection, schedule: Q01DX010 (sc), vehicle: Klucel (hydroxypropylcellulose) (HPC)): 75 % of control
T/C (dose: 200.0 mg/kg/injection, schedule: Q01DX010 (sc), vehicle: Klucel (hydroxypropylcellulose) (HPC)): 47 % of control
T/C (dose: 400.0 mg/kg/injection, schedule: Q01DX010 (sc), vehicle: Klucel (hydroxypropylcellulose) (HPC)): 42 % of control

Reference: PubChem BioAssay AID296 (DTP/NCI, 2004)
